Each compound was assayed against human PDE2A1 (Homo sapiens (Human), UniProt O00408) (assay: PDE selectivity IMAP FP assay, human PDE2A1). Settings: Human PDE2; Lab B; read-out: Human PDE2 Ki (nM) Lab B.
Format: biochemical
Summary of the method: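 Compound titrations run against PDE2 in Tris HCl pH 7.2 buffer with MgCl2 and DTT for 60 min at room temperature, using 50 nM FAM-cAMP plus 1000 nM cGMP and enzyme giving 20% conversion.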

human PDE2A1, sequence (O00408 other isoform, or with tags, fused parts or gaps): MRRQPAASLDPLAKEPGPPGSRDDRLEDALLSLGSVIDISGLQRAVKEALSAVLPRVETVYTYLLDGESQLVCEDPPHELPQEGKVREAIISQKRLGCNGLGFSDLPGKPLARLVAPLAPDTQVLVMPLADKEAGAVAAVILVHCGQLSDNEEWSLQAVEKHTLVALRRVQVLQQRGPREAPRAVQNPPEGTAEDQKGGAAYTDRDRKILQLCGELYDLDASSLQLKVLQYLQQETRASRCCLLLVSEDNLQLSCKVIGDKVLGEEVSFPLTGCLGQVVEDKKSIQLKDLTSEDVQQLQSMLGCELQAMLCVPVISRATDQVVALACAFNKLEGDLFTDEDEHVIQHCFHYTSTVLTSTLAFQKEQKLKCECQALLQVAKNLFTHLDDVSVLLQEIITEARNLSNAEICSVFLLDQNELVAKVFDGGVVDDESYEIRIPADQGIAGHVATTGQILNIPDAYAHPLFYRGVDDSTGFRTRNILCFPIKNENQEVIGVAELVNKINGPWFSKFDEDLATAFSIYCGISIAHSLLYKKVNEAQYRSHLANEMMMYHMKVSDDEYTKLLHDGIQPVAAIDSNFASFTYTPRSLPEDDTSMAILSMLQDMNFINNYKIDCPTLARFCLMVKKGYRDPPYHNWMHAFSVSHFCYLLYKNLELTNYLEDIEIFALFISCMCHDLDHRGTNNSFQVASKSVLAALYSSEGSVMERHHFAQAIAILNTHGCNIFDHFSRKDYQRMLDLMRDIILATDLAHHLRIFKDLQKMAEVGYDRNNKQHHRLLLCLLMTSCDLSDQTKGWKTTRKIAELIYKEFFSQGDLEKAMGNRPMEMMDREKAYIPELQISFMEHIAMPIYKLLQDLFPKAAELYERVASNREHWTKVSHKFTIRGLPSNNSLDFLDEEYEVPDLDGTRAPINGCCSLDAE

Structure (SMILES) | Ki
CC(C)(C)C(c1ccc(C(F)(F)F)cc1)n1nc(C(F)(F)F)c2c(=O)[nH]c(O)nc21 (single isomer, unassigned) [Example 338, (S)- or (R)-1-(2,2-Dimethyl-1-(4-(trifluoromethyl)phenyl)propyl)-6-hydroxy-3-(trifluoromethyl)-1H-pyrazolo[3,4-d]pyrimidin-4(5H)-one] | 373 nM
CCC(c1ccc(OC(F)F)c(F)c1)n1nc(CF)c2c(=O)[nH]c(N(C)C)nc21 (single isomer, unassigned) [Example 340, (R)- or (S)-1-(1-(4-(Difluoromethoxy)-3-fluorophenyl)propyl)-6-(dimethylamino)-3-(fluoromethyl)-1H-pyrazolo[3,4-d]pyrimidin-4(5H)-one] | 0.58 nM
CCC(c1ccc(OC(F)F)c(F)c1)n1nc(CF)c2c(=O)[nH]c(N(C)C)nc21 (single isomer, unassigned) [Example 341, (S)- or (R)-1-(1-(4-(Difluoromethoxy)-3-fluorophenyl)propyl)-6-(dimethylamino)-3-(fluoromethyl)-1H-pyrazolo[3,4-d]pyrimidin-4(5H)-one] | 0.15 nM
CCC(c1ccc(OC(F)F)cc1F)n1nc(CF)c2c(=O)[nH]c(N(C)C)nc21 (single isomer, unassigned) [Example 342, (R)- or (S)-1-(1-(4-(Difluoromethoxy)-2-fluorophenyl)propyl)-6-(dimethylamino)-3-(fluoromethyl)-1H-pyrazolo[3,4-d]pyrimidin-4(5H)-one] | 0.1 nM
CCC(c1ccc(OC(F)F)cc1F)n1nc(CF)c2c(=O)[nH]c(N(C)C)nc21 (single isomer, unassigned) [Example 343, (S)- or (R)-1-(1-(4-(Difluoromethoxy)-2-fluorophenyl)propyl)-6-(dimethylamino)-3-(fluoromethyl)-1H-pyrazolo[3,4-d]pyrimidin-4(5H)-one] | 1.7 nM
CCC(c1ccc(C(F)F)c(F)c1)n1nc(CF)c2c(=O)[nH]c(N(C)C)nc21 (single isomer, unassigned) [Example 344, (R)- or (S)-1-(1-(4-(Difluoromethyl)-3-fluorophenyl)propyl)-6-(dimethylamino)-3-(fluoromethyl)-1H-pyrazolo[3,4-d]pyrimidin-4(5H)-one] | 6.3 nM
CCC(c1ccc(C(F)F)c(F)c1)n1nc(CF)c2c(=O)[nH]c(N(C)C)nc21 (single isomer, unassigned) [Example 345, (S)- or (R)-1-(1-(4-(Difluoromethyl)-3-fluorophenyl)propyl)-6-(dimethylamino)-3-(fluoromethyl)-1H-pyrazolo[3,4-d]pyrimidin-4(5H)-one] | 0.13 nM
CCC(c1ccc(C(F)F)cc1)n1nc(CF)c2c(=O)[nH]c(N(C)C)nc21 (single isomer, unassigned) [Example 346, (R)- or (S)-1-(1-(4-(Difluoromethyl)phenyl)propyl)-6-(dimethylamino)-3-(fluoromethyl)-1H-pyrazolo[3,4-d]pyrimidin-4(5H)-one] | 6.5 nM
CCC(c1ccc(C(F)F)cc1)n1nc(CF)c2c(=O)[nH]c(N(C)C)nc21 (single isomer, unassigned) [Example 347, (S)- or (R)-1-(1-(4-(Difluoromethyl)phenyl)propyl)-6-(dimethylamino)-3-(fluoromethyl)-1H-pyrazolo[3,4-d]pyrimidin-4(5H)-one] | 0.08 nM
CCC(c1ccc(C(F)F)cc1F)n1nc(CF)c2c(=O)[nH]c(N(C)C)nc21 (single isomer, unassigned) [Example 348, (R)- or (S)-1-(1-(4-(difluoromethyl)-2-fluorophenyl)propyl)-6-(dimethylamino)-3-(fluoromethyl)-1H-pyrazolo[3,4-d]pyrimidin-4(5H)-one] | 0.03 nM
CCC(c1ccc(C(F)F)cc1F)n1nc(CF)c2c(=O)[nH]c(N(C)C)nc21 (single isomer, unassigned) [Example 349, (S)- or (R)-1-(1-(4-(difluoromethyl)-2-fluorophenyl)propyl)-6-(dimethylamino)-3-(fluoromethyl)-1H-pyrazolo[3,4-d]pyrimidin-4(5H)-one] | 4 nM
CN(C)c1nc2c(c(CO)nn2C(c2ccc(C(C)(F)F)c(F)c2)C2CC2)c(=O)[nH]1 (single isomer, unassigned) [Example 350, (R)- or (S)-1-(Cyclopropyl(4-(1,1-difluoroethyl)-3-fluorophenyl)methyl)-6-(dimethylamino)-3-(hydroxymethyl)-1H-pyrazolo[3,4-d]pyrimidin-4(5H)-one] | 0.14 nM
CN(C)c1nc2c(c(CO)nn2C(c2ccc(C(C)(F)F)c(F)c2)C2CC2)c(=O)[nH]1 (single isomer, unassigned) [Example 351, (S)- or (R)-1-(Cyclopropyl(4-(1,1-difluoroethyl)-3-fluorophenyl)methyl)-6-(dimethylamino)-3-(hydroxymethyl)-1H-pyrazolo[3,4-d]pyrimidin-4(5H)-one] | 0.02 nM
CN(C)c1nc2c(c(CO)nn2C(c2ccc(C(C)(F)F)cc2F)C2CC2)c(=O)[nH]1 (single isomer, unassigned) [Example 352, (R)- or (S)-1-(Cyclopropyl(4-(1,1-difluoroethyl)-2-fluorophenyl)methyl)-6-(dimethylamino)-3-(hydroxymethyl)-1H-pyrazolo[3,4-d]pyrimidin-4(5H)-one] | 1.2 nM
CN(C)c1nc2c(c(CO)nn2C(c2ccc(C(C)(F)F)cc2F)C2CC2)c(=O)[nH]1 (single isomer, unassigned) [Example 353, (S)- or (R)-1-(Cyclopropyl(4-(1,1-difluoroethyl)-2-fluorophenyl)methyl)-6-(dimethylamino)-3-(hydroxymethyl)-1H-pyrazolo[3,4-d]pyrimidin-4(5H)-one] | 0.05 nM
CC(C)C(c1ccc(C(C)(F)F)cc1)n1nc(CO)c2c(=O)[nH]c(N)nc21 (single isomer, unassigned) [Example 356] | 0.68 nM
CC(C)C(c1ccc(C(C)(F)F)cc1)n1nc(CO)c2c(=O)[nH]c(N)nc21 (single isomer, unassigned) [Example 357] | 19 nM
CNc1nc2c(c(CO)nn2C(c2ccc(C(C)(F)F)cc2)C(C)C)c(=O)[nH]1 (single isomer, unassigned) [Example 358] | 5.3 nM
CNc1nc2c(c(CO)nn2C(c2ccc(C(C)(F)F)cc2)C(C)C)c(=O)[nH]1 (single isomer, unassigned) [Example 359] | 0.33 nM
C[C@@H](c1ccc(C(F)(F)F)cc1)n1nc(CO)c2c(=O)[nH]c(NCCCCl)nc21 [Example 155, 6-[(3-Chloropropyl)amino]-3-(hydroxymethyl)-1-{(1S)-1-[4-(trifluoromethyl)-phenyl]ethyl}-1,5-dihydro-4H-pyrazolo[3,4-d]pyrimidin-4-one] | 3.8 nM
C[C@@H](c1ccc(C(F)(F)F)cc1)n1nc(CO)c2c(=O)[nH]c(N)nc21 [Example 157, 6-Amino-3-(hydroxymethyl)-1-{(1S)-1-[4-(trifluoromethyl)phenyl]ethyl}-1,5-dihydro-4H-pyrazolo[3,4-d]pyrimidin-4-one] | 12 nM
C[C@@H](c1ccc(C(F)(F)F)cc1)n1nc(CO)c2c(=O)[nH]c(N3CCC3)nc21 [Example 158, (S)-6-(Azetidin-1-yl)-3-(hydroxymethyl)-1-(1-(4-(trifluoromethyl)phenyl)ethyl)-1,5-dihydro-4H-pyrazolo[3,4-d]pyrimidin-4-one] | 0.89 nM
